{
  "source": "patent US20020054941A1",
  "about": "“Methods and compositions to enhance tenderness and value of meat” (The Board of Regents of the University of Nebraska, priority 2000, published 2002)",
  "key": {"Supraspinatus (SSP)": {"system": "Supraspinatus (SSP)", "assay": "Warner-Bratzler shear force of muscle pumped pre-rigor with sodium citrate", "set-up": "species or system steers; unit not given here", "protocol": "Thoracic limbs from 14 steers were chilled on the carcass (controls) or removed within 2 hours post-mortem and pumped to 10% of muscle weight with water, 200 mM or 400 mM sodium citrate solutions. The injections were performed at various sites along the muscle. The control remained on the carcass. Muscle pH and temperature were measured immediately prior to pumping. Experimental and control muscles were chilled at 2° C. for 24 hours. Steaks (2.54 cm thick) were removed after 24 hours from the Infraspinatus, Supraspinatus and Triceps brachii muscles and were either frozen immediately or aged for another 6 days and then evaluated. A consumer panel evaluated palatability juiciness, tenderness, connective tissue amount, and flavor desirability) on Infraspinatus and Triceps brachii steaks using 9-point hedonic scales (1 being very undesirable and 9 being very desirable) for each trait. Warner-Bratzler shear force values were determined on 1.27 cm-diameter cores from steaks that were broiled to an internal temperature of 70° C."}, "[1]": {"system": "semimembranosus beef muscles", "assay": "Muscle pH, pre-rigor injection of whole muscle", "protocol": "(§1) Experiment were conducted to test the effects of pre-rigor injection of several compounds. Effects of these compounds on pH, color, tenderness and other related traits of low-value beef cuts were investigated. Ten steers (22 to 24 mo of age, 515 to 676 kg live weight) were slaughtered according to current industry procedures. Pre-rigor semimembranosus (from the round), triceps brachii and supraspinatus muscles (from the chuck) were excised, after evisceration (approximately 1 hour post-mortem), from both sides of the carcass. Muscle sections were randomly assigned to the treatments: sodium citrate (NaC; 200 mM), sodium fluoride (NaF; 200 mM), sodium acetate (NaA; 200 mM), and calcium chloride (CaCl2; 300 mM). The control samples remained on the carcass at 2° C. for 24 hours to simulate commercial conditions. Following a cooling, control muscles were removed from each carcass (4 replicates), vacuum packaged and transferred to the holding cooler with the other cuts at 2° C. Calcium chloride treatment was included to be compared with the other treatments.\n(§2) At 2 hours post-mortem, each muscle was injected with a volume equal to 8% of the muscle weight using a four-needle hand injector. The temperature of solutions were 4° C. Each muscle was individually treated (2% of solution was added to give a total of 10% of muscle weight) and tumbled in a 75-pound capacity tumbler (Röschermatic, Oshabrück, Germany) for 30 min to insure uniform distribution of the solution.\n(§3) Samples of each muscle (approximately 100 g) were taken at 0 hour (before injection), 24, and 72 hours after injection for determination of pH, oxidation-reduction potential, glycogen content, R-values, NAD, and NADH. The samples were then immediately frozen in liquid nitrogen and stored at −80° C. until they were powdered and analyzed. Fresh muscle samples (approximately 20 g) were taken at 72 hours after injection and assayed immediately for water holding capacity and sarcomere length.\n(§4) Duplicate pre-rigor samples (5 g) were weighed from powdered sample and homogenized (Polytron, Brinkman Instruments, New York, N.Y.) in 50 mL of 5 mM iodoacetic acid, 150 mM potassium chloride (pH 7.0, 24° C.) to stop glycolysis (Ahn et al., 1992). The pH of the suspension was measured with a general purpose electrode (Corning Glass Works, Corning, N.Y.) attached to an Orion Model SA 720 pH meter (Orion Research, Inc., Boston, Mass.). Post-rigor muscle pH was determined by homogenizing 5 g of sample in 50 mL of deionized water (Winger et al., 1979)."}, "[2]": {"system": "supraspinatus beef muscles", "assay": "Muscle pH, pre-rigor injection of whole muscle", "protocol": "as §1, §2, §3, §4"}, "[3]": {"system": "triceps brachii beef muscles", "assay": "Muscle pH, pre-rigor injection of whole muscle", "settings": "200 mM, calcium chloride 300 mM", "protocol": "as §1, §2, §3, §4"}, "[4]": {"system": "sternomandibularis beef muscles", "assay": "Shear force of pre-rigor injected sectioned muscle", "settings": "200 mM (glucose, calcium chloride 300 mM)", "protocol": "Pre-rigor beef muscle was sectioned into 100 g. samples at approximately 3 hours post-mortem. The pieces were injected with 10 mL of treatment solution followed by marination in the solution for 24 hours at 2° C. before testing pH and recording visual color of the muscle sections. For evaluation of shear force, samples were thawed, cooked, sliced (approximately 6 mm by 6 mm) and then cooled before readings were taken. The solutions used for this procedure were as described above for homogenized muscle.\nPre-rigor beef muscle was sectioned and the sections were injected at approximately 1 hour post-mortem with a volume of treatment solution equal to 10% of the muscle weight. Objective color measurements were taken on pieces of each muscle section and the pieces were then frozen, powdered and stored at −80° C. for up to 10 days before testing pH and analyzing oxidation-reduction potential. Shear force was evaluated as described immediately above. Solutions used in this procedure were as follows: sodium citrate (200 mM), sodium acetate (200 mM), glucose (300 mM), calcium citrate (200 mM), calcium chloride (300 mM), injection with water, and no injection (control). The calcium citrate solution was prepared as a suspension using 0.25% carrageenan and 200 mM calcium citrate due to its insolubility in water. However, use of calcium citrate can be optimized by increasing solubility by means known in the art."}, "[5]": {"system": "semimembranosus beef muscles", "assay": "Warner-Bratzler shear force, pre-rigor injection of whole muscle", "settings": "200 mM, calcium chloride 300 mM", "protocol": "as §1, §2\n(§5) Tenderness of samples was evaluated by measuring Warner-Bratzler shear force. Steaks (2.54-cm thick) from the middle of each muscle were cut and frozen at 3, 7 and 14 days postmortem. Frozen steaks (2.54 cm thick) were thawed at 4° C. for 24 hours and cooked on Farberware Open Hearth Broilers (Model 350A Walter Kidde, Bronx, N.Y.) to an internal temperature of 40° C., turned, and cooked to a final internal temperature of 70° C. (AMSA, 1995). Temperature was monitored using an OMEGA thermocouple thermometer type T (Omega Engineering, Inc., Stamford, Conn.) inserted into the geometric center of a steak. The cooked steaks were chilled 2 hours at 2° C., and then 8 cores (1.27-cm diameter) were removed parallel to the muscle fiber orientation. Cores were sheared once each on an Instron Universal Testing Machine model 55R1123 (Instron, Canton, Mass.) with a Warner-Braztler attachment. The Instron was set up with a 500 kg load cell, full scale load=1 (0-10 kg), and crosshead speed=250 mm/mim."}, "[6]": {"system": "supraspinatus beef muscles", "assay": "Warner-Bratzler shear force, pre-rigor injection of whole muscle", "settings": "200 mM", "protocol": "as §1, §2, §5"}, "[7]": {"system": "triceps brachii beef muscles", "assay": "Warner-Bratzler shear force, pre-rigor injection of whole muscle", "settings": "200 mM, calcium chloride 300 mM; for Shear force, 3 d: 3 d postmortem; for Shear force, 7 d: 7 d postmortem", "protocol": "as §1, §2, §5"}, "[8]": {"settings": "24 h, 200 mM, calcium chloride 300 mM"}, "[9]": {"settings": "72 h, 200 mM, calcium chloride 300 mM"}},
  "note": "“Also recorded” adds a separate entry of the source. Marks after values point to notes of the source that are not given here.",
  "data": [
    {"compound": "O=C([O-])CC(O)(CC(=O)[O-])C(=O)[O-].[Na+].[Na+].[Na+]", "note": "[Sodium citrate, sodium citrate]", "values": [
      {"measurement": "WBSF", "setting": "Supraspinatus (SSP); 200 mM, d1", "result": "4.09^a"},
      {"measurement": "WBSF", "setting": "Supraspinatus (SSP); 200 mM, d7", "result": "3.83^a"},
      {"measurement": "WBSF", "setting": "Supraspinatus (SSP); 400 mM, d1", "result": "3.91^a"},
      {"measurement": "WBSF", "setting": "Supraspinatus (SSP); 400 mM, d7", "result": "4.03^a"},
      {"measurement": "pH, 0 h", "setting": "[1]; 0 h (before injection)", "result": 6.68},
      {"measurement": "pH, 24 h", "setting": "[1]; [8]", "result": "5.97^a"},
      {"measurement": "pH, 72 h", "setting": "[1]; [9]", "result": "5.78^b"},
      {"measurement": "pH, 0 h", "setting": "[2]; 0 h (before injection)", "result": 6.73},
      {"measurement": "pH, 24 h", "setting": "[2]; [8]", "result": "6.04^b"},
      {"measurement": "pH, 72 h", "setting": "[2]; [9]", "result": "5.86^b"},
      {"measurement": "pH, 0 h", "setting": "[3]; 0 h (before injection)", "result": 6.71},
      {"measurement": "pH, 24 h", "setting": "[3]; 24 h after injection", "result": "5.97^a"},
      {"measurement": "pH, 72 h", "setting": "[3]; 72 h after injection", "result": "5.72^b"},
      {"measurement": "Shear force, kg (72 h)", "setting": "[4]", "result": "11.09^ab kg"},
      {"measurement": "Shear force, 3 d", "setting": "[5]; 3 d postmortem", "result": 5.14, "unit": "kg"},
      {"measurement": "Shear force, 7 d", "setting": "[5]; 7 d postmortem", "result": 4.41, "unit": "kg"},
      {"measurement": "Shear force, 14 d", "setting": "[5]; 14 d postmortem", "result": 3.96, "unit": "kg"},
      {"measurement": "Shear force, 3 d", "setting": "[6]; 3 d postmortem, calcium chloride 300 mM", "result": "5.06^c kg"},
      {"measurement": "Shear force, 7 d", "setting": "[6]; 7 d postmortem, calcium chloride 300 mM", "result": "4.89^b kg"},
      {"measurement": "reduced shear force compared with controls", "setting": "[6]; supraspinatus, 3 days post-mortem, CaCl2 300 mM", "result": 2.22, "unit": "kg"},
      {"measurement": "Shear force, 3 d", "setting": "[7]", "result": "4.54^c kg"},
      {"measurement": "Shear force, 3 d", "setting": "[7]; listed as NaC", "result": "most tender meat; also recorded: more tender"},
      {"measurement": "Shear force, 7 d", "setting": "[7]", "result": "4.20^c kg"},
      {"measurement": "Shear force, 7 d", "setting": "[7]; listed as NaC", "result": "lower shear force values than CaCl2"},
      {"measurement": "Shear force, 14 d", "setting": "[7]; 14 d postmortem", "result": 3.69, "unit": "kg"}
    ]}
  ]
}
